Patent publication US11691960B2, “2-[thiophen-2-yl)formamido]-N-(phenyl)-2-methylpropanamide derivatives and the use thereof as medicament” (Boehringer Ingelheim International GmbH, priority 2020, dated 2023)

What was measured:
[1] = Assay F: tissue distribution in mouse after oral application; type: in vivo
Source text: (§1) In order to estimate the amount of administered drug to enter the brain, the brain to plasma ratio is used as surrogate parameter. As efflux transporters (e.g. P-gp) are located at the blood-brain barrier, compounds acting as substrates will be actively transported out of the brain. As these efflux transporters are not expressed in muscle tissue, the relative distribution ratio of compound between muscle and brain tissue can be used as indication for an efflux in vivo in rats or mice. In case there is no in vivo efflux detectable (in rats/mice) and in case there is no efflux in vitro (MDCK-MDR1 (P-gp)), a brain exposure in patients can be expected [see Table 7 for comparison of in vitro efflux data (MDCK-MDR1 assay) and in vivo efflux data (tissue distribution in rat/mouse after oral application)].
(§2) Assay F. Determination of Tissue Distribution in Rat/Mouse After Oral Application of Compounds
Male Han Wistar rats or C57BL/6NRj mice were orally dosed with 10 μmol/kg of compound to be investigated, suspended in 0.5% Natrosol/0.015% Tween80. Blood was collected in K3EDTA containing vials from the sublingual vein in short time Isoflurane anesthesia in rat or from the saphenous vein in conscious mice at […], 0.25, 0.5, 1, 2, 3, 4, 8 and 24 hours post administration. Subsequently, plasma was prepared by centrifugation for 5 min at 5000 rpm and stored at −20° C. […]

MDR1 (P-gp) = MDR1 (P-gp) (Homo sapiens (Human), UniProt P08183); assay: Assay E: MDCK assay MDR-1 (P-gp); type: in vitro ADME; settings: for efflux ratio at 2 h, 10 μM: human, MDCK-MDR1, pH 7.4, Table 7, final test concentration 10 μM, read-out: MDCK-MDR1 efflux ratio (Assay E)
Procedure: The MDCK assays provide information on the potential of a compound to pass the blood brain barrier. Permeability measurements across polarized, confluent MDCK-MDR1 cell monolayers grown on permeable filter supports are used as an in vitro absorption model: apparent permeability coefficients (PE) of the compounds across the MDCK-MDR1 cell monolayers are measured (pH 7.4, 37° C.) in apical-to-basal (AB) and basal-to-apical (BA) transport direction. The AB permeability (PEAB) represents drug absorption from the blood into the brain and the BA permeability (PEBA) drug efflux from the brain back into the blood via both, passive permeability as well as active transport mechanisms mediated by efflux and uptake transporters that are expressed on the MDCK-MDR1 cells, predominantly by the overexpressed human MDR1. Identical or similar permeabilities in both transport directions indicate passive permeation, vectorial permeability points to additional active transport mechanisms. Higher PEBA than PEAB (PEBA/PEAB >3) indicates the involvement of active efflux mediated by MDR1, which might compromise the goal to achieve sufficient brain exposure.
Assay E. MDCK assay MDR-1 (P-gp)
Apparent permeability coefficients (Papp) of the compounds across MDCK-MDR1 monolayers (MDCKII cells transfected with human MDR1 gene) are measured in apical-to-basal (AB) and basal-to-apical (BA) direction.
MDCK-MDR1 cells (6×10^5 cells/cm^2) are seeded onto filter inserts (Corning, Transwell, polycarbonate, 0.4 μm pore size) and cultured for 9 to 10 days. Compounds dissolved in DMSO stock solution (1-20 mM) are diluted with HTP-4 buffer (128.13 mM NaCl, 5.36 mM KCl, 1 mM MgSO4, 1.8 mM CaCl2, 4.17 mM NaHCO3, 1.19 mM Na2HPO4, 0.41 mM NaH2PO4, 15 mM HEPES, 20 mM glucose, pH 7.4) supplemented with 0.25% BSA to prepare the transport solutions, resulting in a final test concentration of 1 μM or 10 μM and a final DMSO content of 0.5%. The transport solution is applied to the apical or basolateral donor side for measuring A-B or B-A permeability, respectively. The receiver side contains HTP-4 buffer supplemented with 0.25% BSA. Samples are collected at the start and end of experiment from the donor and at various time intervals for up to 2 hours from the receiver side for concentration measurement by HPLC-MS/MS. Sampled receiver volumes are replaced with fresh receiver solution.
All data reported for Assay E were measured with a final test concentration of 10 μM.

[2] = Assay F: tissue distribution in rat after oral application; type: in vivo
Source text: as §1, §2
Male Han Wistar rats or C57BL/6NRj mice were orally dosed with 10 μmol/kg of compound to be investigated, suspended in 0.5% Natrosol/0.015% Tween80. Blood was collected in K3EDTA containing vials from the sublingual vein in short time Isoflurane anesthesia in rat or from the saphenous vein in conscious mice at […], 0.25, 0.5, 1, 2, 3, 4, 8 and 24 hours post administration. Subsequently, plasma was prepared by centrifugation for 5 min at 5000 rpm and stored at −20° C.
Tissues and CSF were sampled in anaesthetized animals. CSF was collected from the cisterna magna. Following exsanguination a femoral muscle sample was collected. Cranium and the dura matter were removed and the complete brain was collected. Before transfer of the muscle and brain sample to pre-weight homogenization devices (Precellys®) the tissues were rinsed with saline and blotted dry.
For homogenization, four parts (v/w) homogenization buffer (37.5% acetonitrile, 37.5% methanol, 25% water) were added. Tissues were homogenized with a Precellys® Evolution homogenizer. Five μL of the homogenate were added to 70 μL of a 1 to 1 (v/v) mixture of acetonitrile and methanol and frozen for at least 10 min at −18° C.
For final sample preparation, the sample was centrifuged at 4000 rpm for 1 min, and an aliquot of the resulting supernatant (30 μL) was mixed with 170 μL formic acid prior to injection to LC-MS. Calibration curves were prepared accordingly in rat and mouse plasma, respectively. All animal care and experimental procedures at Boehringer Ingelheim were conducted in compliance with the German and European Animal Welfare Act (EU Directive 2010/63/EU) and were approved by the Regierungspräsidium Tübingen as the responsible local German authority (reference number 35/9185.81-8/14-009-G).

[3] = oral 10 μmol/kg, muscle/brain tissue distribution

Chain of MDR1 (P-gp) (P08183 whole entry): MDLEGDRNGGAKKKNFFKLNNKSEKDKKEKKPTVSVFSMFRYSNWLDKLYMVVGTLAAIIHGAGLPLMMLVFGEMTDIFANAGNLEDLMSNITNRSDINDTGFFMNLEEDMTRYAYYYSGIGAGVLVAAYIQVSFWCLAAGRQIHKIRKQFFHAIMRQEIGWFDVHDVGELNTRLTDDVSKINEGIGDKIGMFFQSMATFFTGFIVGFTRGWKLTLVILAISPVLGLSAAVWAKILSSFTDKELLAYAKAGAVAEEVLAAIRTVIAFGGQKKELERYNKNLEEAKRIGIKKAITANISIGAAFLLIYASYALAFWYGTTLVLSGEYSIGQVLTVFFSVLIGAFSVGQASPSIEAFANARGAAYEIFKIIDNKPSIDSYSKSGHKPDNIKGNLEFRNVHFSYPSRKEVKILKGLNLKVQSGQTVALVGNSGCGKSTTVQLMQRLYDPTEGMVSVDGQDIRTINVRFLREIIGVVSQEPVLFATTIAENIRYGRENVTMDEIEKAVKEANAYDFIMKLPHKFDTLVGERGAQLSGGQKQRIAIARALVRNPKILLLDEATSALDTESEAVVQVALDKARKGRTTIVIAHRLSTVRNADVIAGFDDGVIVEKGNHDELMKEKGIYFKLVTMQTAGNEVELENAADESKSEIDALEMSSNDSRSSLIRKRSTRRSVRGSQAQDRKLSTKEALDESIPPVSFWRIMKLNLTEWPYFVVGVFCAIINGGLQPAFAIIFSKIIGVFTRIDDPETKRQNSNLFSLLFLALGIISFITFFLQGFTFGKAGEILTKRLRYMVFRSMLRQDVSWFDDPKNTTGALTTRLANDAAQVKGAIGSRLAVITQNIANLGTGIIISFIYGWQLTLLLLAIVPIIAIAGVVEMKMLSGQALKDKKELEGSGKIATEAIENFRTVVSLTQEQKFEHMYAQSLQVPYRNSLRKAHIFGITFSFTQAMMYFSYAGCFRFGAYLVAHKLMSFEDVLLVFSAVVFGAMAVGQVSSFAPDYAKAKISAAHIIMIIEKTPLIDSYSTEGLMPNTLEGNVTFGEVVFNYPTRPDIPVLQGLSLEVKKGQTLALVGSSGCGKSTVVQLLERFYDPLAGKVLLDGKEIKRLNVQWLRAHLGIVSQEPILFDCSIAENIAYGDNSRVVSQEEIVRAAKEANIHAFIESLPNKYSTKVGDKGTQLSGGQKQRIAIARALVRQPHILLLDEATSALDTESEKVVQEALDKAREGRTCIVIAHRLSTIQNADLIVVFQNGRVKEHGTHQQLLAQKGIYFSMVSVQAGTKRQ

Compound | in vivo efflux (in words) ([1]; after oral application) | in vivo efflux (Assay F) [1, 3] | in vitro efflux, MDCK-MDR1 (in words) (MDR1 (P-gp)) | efflux ratio at 2 h, 10 μM (MDR1 (P-gp)) | in vivo efflux (in words) ([2]; after oral application) | in vivo efflux (Assay F) [2, 3]
CC(C)(NC(=O)c1ccc(Cl)s1)C(=O)Nc1ccc(Cl)c(F)c1 [Example 3, 2-[(5-chlorothiophen-2-yl)formamido]-N-(4-chloro-3-fluorophenyl)-2-methylpropanamide] | neither in vitro nor in vivo efflux | 0.60 (mouse) | neither in vitro nor in vivo efflux | 0.5 |  | 
CC(C)(NC(=O)c1ccc(Cl)s1)C(=O)Nc1ccc(Br)cc1 [Example 4, 2-[(5-chlorothiophen-2-yl)formamido]-N-(4-bromophenyl)-2-methylpropanamide] |  |  | neither in vitro nor in vivo efflux | 0.5 | neither in vitro nor in vivo efflux | 0.50 (rat)
